From patent publication US20260274814A1, “THIENYL COMPOUNDS FOR THE TREATMENT OF A CENTRAL NERVOUS SYSTEM DISEASE OR DISORDER” (Coreterra Therapeutics, Inc., priority 2023, published 2026)
Where a name gives a salt, the structure may show the parent alone.

Tested on: mice
Assay: Neuropharmacological Assay (SmartCube): automated behavioral signature of compound-treated mice compared with a database of reference drug classes
Type: in vivo
Settings: for minimal effective dose: Mus musculus, ip, read-out: MED; for minimal effective dose / MED: minimal effective dose: dose having 45% or more total activity in SmartCube, i.p., if only one dose was tested, that dose is shown; for AD / AG / AN / AX / CE / HL / MS / PS / SH / AP / UK: SmartCube probability class, 3.0 mg/kg dose, i.p. 15 min before the behavioral test
How it was run: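 Mice dosed i.p. 15 min before SmartCube testing, with compound in N-methyl-2-pyrrolidone/polyethylene glycol/propylene glycol. Video-captured behaviour is compared with a reference-drug signature database to give per-class probabilities, reported at 3.0 mg/kg. MED, from doses usually 0.3–10 mg/kg, is the lowest dose giving ≥45% total activity.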

SMILES	minimal effective dose [mg/kg]	AD	AG	AN	AX	CE	HL	MS	PS	SH	AP (hydrochloride, 3 mg/kg)	UK (hydrochloride, 3 mg/kg)	MED (hydrochloride) [mpk]	AP	AX (hydrochloride, 3 mg/kg)	further results
CNC1COc2sccc2C1 (single isomer, unassigned) [Compound 293, N-methyl-3,4-dihydro-2H-thieno[2,3-b]pyran-3-amine formate salt]	< 3	ND (^ <4%)	ND (^ <4%)	ND (^ <4%)	ND (^ <4%)	ND (^ <4%)	ND (^ <4%)	ND (^ <4%)	ND (^ <4%)	ND (^ <4%)	–	–	–	–	–	AP (formate salt, 3 mg/kg): ++++ (≥74%); UK (formate salt, 3 mg/kg): ND (^ <4%)
CNC1COc2sccc2C1 (single isomer, unassigned) [Compound 294, N-methyl-3,4-dihydro-2H-thieno[2,3-b]pyran-3-amine formate salt]	–	ND (^ <4%)	ND (^ <4%)	ND (^ <4%)	ND (^ <4%)	ND (^ <4%)	ND (^ <4%)	ND (^ <4%)	ND (^ <4%)	ND (^ <4%)	–	–	–	–	–	AP (formate salt, 3 mg/kg): ND (^ <4%); UK (formate salt, 3 mg/kg): + (≥4%); MED (formate salt): >3 mpk
Cc1csc2c1OCC(N)C2 (single isomer, unassigned) [Compound 295, 3-methyl-6,7-dihydro-5H-thieno[3,2-b]pyran-6-amine hydrochloride]	3	ND (^ <4%)	ND (^ <4%)	ND (^ <4%)	ND (^ <4%)	ND (^ <4%)	ND (^ <4%)	ND (^ <4%)	ND (^ <4%)	ND (^ <4%)	+++ (≥49%)	ND (^ <4%)	–	–	–	–
Cc1csc2c1OCC(N)C2 (single isomer, unassigned) [Compound 296, 3-methyl-6,7-dihydro-5H-thieno[3,2-b]pyran-6-amine hydrochloride]	–	ND (^ <4%)	ND (^ <4%)	ND (^ <4%)	ND (^ <4%)	ND (^ <4%)	ND (^ <4%)	ND (^ <4%)	ND (^ <4%)	ND (^ <4%)	ND (^ <4%)	+ (≥4%)	>3	–	–	–
CNC1COc2c(C)csc2C1 (single isomer, unassigned) [Compound 297, N, 3-dimethyl-6,7-dihydro-5H-thieno[3,2-b]pyran-6-amine hydrochloride]	3	ND (^ <4%)	ND (^ <4%)	ND (^ <4%)	–	ND (^ <4%)	ND (^ <4%)	ND (^ <4%)	ND (^ <4%)	ND (^ <4%)	–	–	–	ND (^ <4%)	ND (^ <4%)	UK: ND (^ <4%)
CNC1COc2c(C)csc2C1 (single isomer, unassigned) [Compound 298, N, 3-dimethyl-6,7-dihydro-5H-thieno[3,2-b]pyran-6-amine hydrochloride]	–	ND (^ <4%)	ND (^ <4%)	ND (^ <4%)	–	ND (^ <4%)	ND (^ <4%)	ND (^ <4%)	ND (^ <4%)	ND (^ <4%)	–	–	–	ND (^ <4%)	+++ (≥49%)	UK: ND (^ <4%); MED: 3 mpk
CNC1COc2c(C(F)(F)F)csc2C1 (single isomer, unassigned) [Compound 309, N-methyl-3-(trifluoromethyl)-6,7-dihydro-5H-thieno[3,2-b]pyran-6-amine hydrochloride]	–	ND (^ <4%)	ND (^ <4%)	ND (^ <4%)	ND (^ <4%)	ND (^ <4%)	ND (^ <4%)	ND (^ <4%)	ND (^ <4%)	ND (^ <4%)	–	ND (^ <4%)	1	ND (^ <4%)	–	–
CNC1COc2c(C(F)(F)F)csc2C1 (single isomer, unassigned) [Compound 310, N-methyl-3-(trifluoromethyl)-6,7-dihydro-5H-thieno[3,2-b]pyran-6-amine hydrochloride]	–	ND (^ <4%)	ND (^ <4%)	ND (^ <4%)	ND (^ <4%)	ND (^ <4%)	ND (^ <4%)	ND (^ <4%)	ND (^ <4%)	ND (^ <4%)	–	++ (≥24%)	>3	ND (^ <4%)	–	–
N#Cc1scc2c1CC(N)CC2 (single isomer, unassigned) [Compound 312, 6-amino-4,5,6,7-tetrahydro-2-benzothiophene-1-carbonitrile hydrochloride]	3	ND (^ <4%)	ND (^ <4%)	ND (^ <4%)	ND (^ <4%)	ND (^ <4%)	ND (^ <4%)	ND (^ <4%)	ND (^ <4%)	ND (^ <4%)	–	+++ (≥49%)	–	ND (^ <4%)	–	–
N#Cc1scc2c1CC(N)CC2 (single isomer, unassigned) [Compound 313, 6-amino-4,5,6,7-tetrahydro-2-benzothiophene-1-carbonitrile hydrochloride]	–	ND (^ <4%)	ND (^ <4%)	ND (^ <4%)	ND (^ <4%)	ND (^ <4%)	ND (^ <4%)	ND (^ <4%)	ND (^ <4%)	ND (^ <4%)	–	+ (≥4%)	>3	ND (^ <4%)	–	–
CNC1Cc2scc(C(F)(F)F)c2C1 (single isomer, unassigned) [Compound 314, N-methyl-3-(trifluoromethyl)-5,6-dihydro-4H-cyclopenta[b]thiophen-5-amine hydrochloride]	> 3	ND (^ <4%)	ND (^ <4%)	ND (^ <4%)	–	ND (^ <4%)	ND (^ <4%)	ND (^ <4%)	ND (^ <4%)	ND (^ <4%)	ND (^ <4%)	+ (≥4%)	–	–	ND (^ <4%)	–
CNC1Cc2scc(C(F)(F)F)c2C1 (single isomer, unassigned) [Compound 315, N-methyl-3-(trifluoromethyl)-5,6-dihydro-4H-cyclopenta[b]thiophen-5-amine hydrochloride]	–	ND (^ <4%)	ND (^ <4%)	ND (^ <4%)	–	ND (^ <4%)	ND (^ <4%)	ND (^ <4%)	ND (^ <4%)	ND (^ <4%)	+ (≥4%)	ND (^ <4%)	3	–	++++ (≥74%)	–
CNC1Cc2scc(C)c2C1 (single isomer, unassigned) [Compound 316, N, 3-dimethyl-5,6-dihydro-4H-cyclopenta[b]thiophen-5-amine hydrochloride]	3	ND (^ <4%)	ND (^ <4%)	ND (^ <4%)	–	–	ND (^ <4%)	ND (^ <4%)	ND (^ <4%)	ND (^ <4%)	++++ (≥74%)	–	–	–	ND (^ <4%)	UK: ND (^ <4%); CE (hydrochloride, 3 mg/kg): ND (^ <4%)
CNC1Cc2scc(C)c2C1 (single isomer, unassigned) [Compound 317, N, 3-dimethyl-5,6-dihydro-4H-cyclopenta[b]thiophen-5-amine hydrochloride]	–	ND (^ <4%)	ND (^ <4%)	ND (^ <4%)	–	–	ND (^ <4%)	ND (^ <4%)	ND (^ <4%)	ND (^ <4%)	+ (≥4%)	–	–	–	+++ (≥49%)	UK: ND (^ <4%); CE (hydrochloride, 3 mg/kg): + (≥4%); MED: 3 mpk
CNC1Cc2cc(C)sc2C1 (single isomer, unassigned) [Compound 318, N, 2-dimethyl-5,6-dihydro-4H-cyclopenta[b]thiophen-5-amine hydrochloride]	3	ND (^ <4%)	ND (^ <4%)	ND (^ <4%)	–	–	ND (^ <4%)	ND (^ <4%)	ND (^ <4%)	ND (^ <4%)	+ (≥4%)	+++ (≥49%)	–	–	+ (≥4%)	CE (hydrochloride, 3 mg/kg): ND (^ <4%)
CNC1Cc2cc(C)sc2C1 (single isomer, unassigned) [Compound 319, N, 2-dimethyl-5,6-dihydro-4H-cyclopenta[b]thiophen-5-amine hydrochloride]	–	ND (^ <4%)	ND (^ <4%)	ND (^ <4%)	–	–	ND (^ <4%)	ND (^ <4%)	ND (^ <4%)	ND (^ <4%)	ND (^ <4%)	ND (^ <4%)	–	–	++++ (≥74%)	CE (hydrochloride, 3 mg/kg): + (≥4%); MED: 3 mpk
